Common to all, as to format: in vivo
For test [1], the system named is rat left anterior descending branch coronary artery reperfusion models (acute myocardial infarction). Briefly: Rat heart ischemia model: thickness of anterior left ventricular wall by ultrasonic cardiogram. To be noted: for thickness of anterior left ventricular wall: 10 μg/rat/day intraperitoneal injection. The protocol:
(§1) Rats were administrated with xylazine 5 mg/kg by intramuscular injection; anesthetized with ketamine 50 mg/kg, and rat anterior chest wall was disinfected with iodine tincture and alcohol; after completely dry, a sterile operation towel was put on, the operative site was exposed, and the operation was conducted under complete aseptic condition. The skin of rat anterior chest wall was incised, and the 3rd to the 6th ribs were cut to expose thoracic cavity, the lung was pushed aside, the heart vesicle was opened to expose the heart. Blood vessel from the origin of left anterior descending branch coronary artery to 3 mm was ligated with 6-0 polypropylene ligature wire and NELATION, and the reperfusion was conducted 1 hour later. After non-hemorrhage was confirmed, the excised ribs were sutured with sternum, and then skin was sutured. After operation, the rats were administrated with 3 mg/kg/day gentamicin for 3 days by intramuscular injection for prevention of infection.
3. Comparison of Degree of Heart Ventricle Fibrosis by Using Histological Pictures

Test [2] has the same test system. In words: Rat heart ischemia model: degree of heart ventricle fibrosis by histological pictures (Masson's trichrome). To be noted: 56th day after administration; 10 μg/rat/day intraperitoneal injection. The method, then:
as §1

For test [3], the system named is rat epidermis lesion models. Briefly: Rat epidermis lesion model: wound length by computer image analysis (smearing on epidermis). The protocol:
30 adult rats were cut on their epidermis to obtain rat epidermis lesion model.
(§2) Rats were administrated with xylazine 5 mg/kg by intramuscular injection; anesthetized with ketamine 50 mg/kg, and rat posterior skin was disinfected with iodine tincture and alcohol; after completely dry, a sterile operation towel was put on, the operative site was exposed, and the operation was conducted under complete aseptic condition. The rat posterior skin was incised to form 3 cm incision.

For test [4], the system named is rat epidermis lesion models. In words: Rat epidermis lesion model: wound healing observation after topical administration by nebulizer. The method, then: as §2
Test [5] concerns rat cornea alkali burn models. Briefly: Rat cornea alkali burn model: recovery of corneal epithelium by image analysis. An excerpt:
The corneas of 30 adult rats were burned with 1N NaOH to obtain rat corneal lesion models.
After 4 days, eyeballs were exenterated, fixed with 10% formaldehyde, embedded with paraffin and continuously sectioned along pupil optic nerve plane, the obtained sections were used for collection and analysis of recovery of corneal epithelium by image analysis system.

The subject of test [6] is rabbit cornea alkali burn models. In words: Rabbit cornea alkali burn model: recovery of corneal epithelium. The following applies: 5th day; 500 μg/ml eyedrops, 4 times per day. The source says:
Eyeballs were exenterated separately after 1 and 5 days, fixed with 10% formaldehyde, embedded with paraffin, and continuously sectioned along pupil optic nerve plane, the obtained sections were stained and used for collection and analysis of recovery of corneal epithelium by image analysis system.

Test [7] concerns rat models with left anterior descending branch coronary artery ligation and reperfusion. Briefly: Rat coronary artery ligation and reperfusion model: cell death and heart function (summary). To be noted: continuous injection for one month. The method, then: 60 adult rats were subjected to coronary artery deligation to imitate the onset of heart disease and to obtain rat models with left anterior descending branch coronary artery ligation and reperfusion.
as §1

Where [8] appears, read: 100 μg/ml, topical by nebulizer, 4 times per day.

Values joined by “and” are separate entries in the source; they are usually repeats but may differ in a detail not shown here. Equal entries are not always repeated.

Regarding “Tβ4: Native thymosin β4, polypeptide with 43 amino acids as shown in SEQ ID NO:1; positive control (SDKPDMAEIEKFDKSKLKKTETQEKNPLPSKETIEQEKQAGES; listed as Homo sapiens)”, in test [1] (0th day, before administration, rat heart ischemia model), the “thickness of anterior left ventricular wall, basal value” turned out to be 0.2378±0.018. In test [1] (14th day after administration), the “thickness of anterior left ventricular wall” value is 0.1919±0.012 and 0.1215±0.013. The “thickness of anterior left ventricular wall” value in test [1] (28th day after administration) was 0.1233±0.0071. Moreover, the “thickness of anterior left ventricular wall” value in test [1] (56th day after administration) was 0.1232±0.0057. Moreover, in test [2], the “ratio of fibrosis part of myocardium based on total myocardium of left ventricle” value was 23.15±2.9% and 22.91±2.3%. Further, the “wound length, basal value” in test [3] (0th day, before administration, 3 cm incision of posterior skin) is recorded as 3.07±0.18. In test [3] (5th day, smeared on epidermis 4 times per day, 5 μg/day), this substance displayed a wound length of 1.62±0.13. For the same substance, the “length of wounds smaller than the blank control” value in test [3] (smeared for 5 days, 30 adult rats) was found to be 50%. Besides, in test [4] (setting [8]), the wound healing time was 5.8 ± 0.91 days; the “wound inflammatory reaction (severity)” value was “relatively slight inflammatory reactions”; the “wound inflammatory reaction, time persisted” value fell in the range of 1 to 2 days. Also, in test [4] (two weeks after administration, 100 μg/ml by nebulizer), the scar appearance entry is reported as “relatively fine linear scars with relatively smooth surface”. This substance yielded a scar size in test [4] (two weeks after administration, 100 μg/ml by nebulizer, 4 times per day) of 1.9±0.23 cm. Further, in test [5] (0th day, before administration, 1N caustic soda burn), the “recovery of corneal epithelium (image analysis), basal value” is recorded as 4.76±0.18. Further, the “recovery of corneal epithelium (image analysis)” value in test [5] (4th day after administration, eyedrops 30 μl/rat, 4 times per day) amounted to 7.03±0.13. Moreover, the “recovery of injured corneas” value in test [5] (dropped in eyes for 4 days, corneas burned with 1N NaOH) is given as “recovered completely”. Besides, in test [6], the “layers of epithelial cells appeared” value is reported as 1-2 layers; the “recovery condition of corneal epithelium” value is “all injured corneal epithelial cells were recovered and became normal”. Further, in test [7], the “cell death in the injured rat heart” value was “Limited cells died”. Moreover, the heart functions result in test [7] (several weeks after the onset of heart disease) is on record as “heart functions were improved”.

Source of the values: US7816321B2, “Thymosin β4 derivatives and use thereof” (Beijing Northland Biotech. Co., Ltd., priority 2005, dated 2010).
